Values of other authors, collected in US20250177407A1 (Closed Loop Medicine Ltd., priority 2023, published 2025).
Like-named read-outs stand apart in the source and are kept apart here. Marks after values point to notes of the source that are not given here.

Assays:
[1] = test system: patients with nonvalvular AF; conditions: ROCKET-AF
patients with AF = conditions: management of AF
[2] = not given; remark: listed apart in the source
[3] = not given; remark: listed apart in the source
[4] = not given; remark: listed apart in the source
factor Xa activity = factor Xa activity (Homo sapiens, UniProt P00742)
factor Xa activity, sequence (P00742 235-488 limits assumed): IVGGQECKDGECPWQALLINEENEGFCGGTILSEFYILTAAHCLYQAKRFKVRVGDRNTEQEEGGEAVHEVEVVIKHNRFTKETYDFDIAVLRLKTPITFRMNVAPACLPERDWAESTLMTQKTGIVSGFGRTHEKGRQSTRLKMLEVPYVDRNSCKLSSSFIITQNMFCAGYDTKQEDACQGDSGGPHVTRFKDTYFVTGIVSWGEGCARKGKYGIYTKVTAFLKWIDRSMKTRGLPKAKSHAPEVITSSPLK
factor Xa activity, sequence (P00742 41-179 partner limits assumed): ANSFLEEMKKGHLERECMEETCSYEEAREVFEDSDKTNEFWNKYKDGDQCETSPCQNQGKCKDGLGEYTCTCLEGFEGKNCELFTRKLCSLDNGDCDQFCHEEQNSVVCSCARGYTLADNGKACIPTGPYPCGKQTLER

[5] = not given; remark: listed apart in the source
[6] = clearance adjustment, comedication

CC(=O)CC(c1ccccc1)c1c(O)c2ccccc2oc1=O (stereo not shown) [warfarin]
rate of fatal stroke [1]: 2.2 % per year
reduction of stroke (patients with AF): about 60%

O=C(NC[C@H]1CN(c2ccc(N3CCOCC3=O)cc2)C(=O)O1)c1ccc(Cl)s1 [rivaroxaban]
increase in drug level exposure (AUC) (CrCl = 30, relative to median CrCl of 69 for the RE-LY study data): 1.8 fold
increase in drug level exposure (AUC) (CrCl = 50, relative to median CrCl of 69 for the RE-LY study data): 1.3 fold
increase in drug level exposure (AUC) (South Asians compared to other ethnicities): ~26% increase in South Asians compared to
increase in drug level exposure (AUC) per year older (age, compared to 72 yr): 0.41% increase per year older compared to 72 yr
decrease in drug level exposure (AUC) (comedication PPIs): ~13% decrease
increase in drug level exposure (AUC) (comedication amiodarone): 12% increase
increase in drug level exposure (AUC) (comedication verapamil): 23% increase
increase in drug level exposure (AUC) (females compared to men): ~9% increase in females compared to men
decrease in Vd (haemoglobin above 14.3 g · dL^−1): by 4%/1 g · dL^−1 above 14.3 g · dL^−1
effect of low weight on Cmax (in vivo): increase Cmax
increase in drug level exposure (AUC) (patients with heart failure): ~7% increase in patients with HF
increase in distribution volume (Vd) per kg above 80 kg (weight): in distribution volume (Vd) by 0.8%
interethnic differences in PK and PD characteristics ([2]; Caucasian, African-American, Hispanic, Japanese, Chinese patients (EMA)): no clinically relevant interethnic differences
higher exposure compared to other ethnicities ([2]; healthy Japanese subjects, on average (FDA)): 20-40%
increase in AUC compared with healthy subjects ([2]; mild (Child-Pugh A) hepatic impairment): 15%
increase in exposure ([2]; mild renal impairment (CrCl 50-79 mL/min)): 44%
increase in the effect-time curve AUC ([2]; moderate hepatic impairment): 159%
prothrombin time ([2]; moderate hepatic impairment): significant prolongation
increase in exposure ([2]; moderate renal impairment (CrCl 30-49 mL/min)): 52%
increase in exposure ([2]; severe renal impairment (CrCl<30 mL/min)): 64%
θCL/F, P-gp inhibitor ([3]; clearance adjustment, P-gp inhibitor comedication): 0.996 Proportion
θCL/F, VTE ≤72 hr ([3]; clearance adjustment, VTE prevention after hip or knee surgery, less than 72 hours): 1.04 Proportion
θCL/F, VTE >72 hr ([3]; clearance adjustment, VTE prevention after hip or knee surgery, more than 72 hours): 1.29 Proportion
θCL/F, ACS ([3]; clearance adjustment, acute coronary syndrome): 1.14 Proportion
θCL/F, CYP3A4 inducer [3, 6]: 1.3 Proportion
θCL/F, Medium CYP3A4 inhibitor [3, 6]: 0.863 Proportion
θCL/F, Strong CYP3A4 inhibitor [3, 6]: 0.978 Proportion
θCL/F, Weak CYP3A4 inhibitor [3, 6]: 0.939 Proportion
θCL/F, AF ([3]; clearance adjustment, stroke prevention in AF): 0.849 Proportion
θV/F, Age ([3]; covariate effect of age on V/F): −0.189 Power
θCL/F, Weight ([3]; covariate effect of body weight on CL/F): −0.278 Power
θV/F, Weight ([3]; covariate effect of body weight on V/F): 0.216 Power
θCL/F, CRCL ([3]; covariate effect of creatinine clearance on CL/F): 0.406 Power
θV/F, Sex ([3]; covariate effect of sex on V/F): 0.889 Proportion
ω^2CL/F ([3]; inter-individual variability): 0.167 Variance
ω^2CL/F, V/F ([3]; inter-individual variability): 0.0674 Covariance
ω^2Ka ([3]; inter-individual variability): 0.628 Variance
ω^2V/F ([3]; inter-individual variability): 0.0391 Variance
CL/F, apparent clearance ([3]; population PK estimate): 6.58 L/h
Ka, first-order absorption rate constant ([3]; population PK estimate): 0.821 h⁻¹
V/F, apparent volume of distribution ([3]; population PK estimate): 62.5 L
D50 ([3]; relative bioavailability model): 14.4 mg
σ^2prop ([3]; residual variability): 0.203 Variance
bioavailability ([4]; 20 mg tablets, fasting, healthy subjects): approximately 66%
variability in drug plasma levels for a given dose ([4]; between patients): 6- to 10 fold
half-life ([4]; elderly): 11 to 13 h
half life ([4]; elderly patients): ~12 h
half-life ([4]; healthy volunteers): 5 to 9 h
fraction of absorbed drug eliminated unchanged via the kidney ([4]; human, in vivo): 30%
fraction of absorbed drug metabolised by hepatic CYP 3A4/5 and CYP-independent enzymes ([4]; human, in vivo): Approximately 60%
time to peak levels ([4]; once daily immediate release with food): 1 to 2 h
bioavailability ([4]; oral 2.5 and 10 mg tablets, not affected by food): 80-100%
time to peak concentration ([4]; oral administration): 2 to 4 h
half-life ([4]; population not specified): 5 to 9 h
half life ([4]; young patients): 5 to 9 h
Emax (factor Xa activity; Girgis et al. (2014)): 107%
Emax (factor Xa activity; Mueck et al. (2007)): 0.86 U/ml
Emax (factor Xa activity; Mueck et al. (2008b), KRS): 0.837 U/ml
Emax (factor Xa activity; Mueck et al. (2008b), day 1, HRS): 0.881 U/ml
Emax (factor Xa activity; Mueck et al. (2008b), steady state, HRS): 0.942 U/ml
FXa0 (second entry of the cell) (factor Xa activity; Tanigawa et al. (2013)): 0.928 U/mL
Hill (factor Xa activity; Tanigawa et al. (2013)): 1.16
plasma protein binding [5]: 92-95%
rate of fatal stroke [1]: 1.7 % per year
risk of intracranial bleeds [1]: 0.5%
slope of prothrombin time versus plasma concentration (prothrombin time; Esmueti et al. (2022), Fisherbrand reagent): 0.018 s/(μg/ L)
Hill (prothrombin time; Zhao et al. (2022)): 1.37 ^b
slope of prothrombin time versus plasma concentration (prothrombin time; Zhao et al. (2022)): 0.0018 ^b s/(μg/L)
